Patent US9388162B2, “Substituted morphinans and the use thereof” (Purdue Pharma L.P., priority 2012, dated 2016)

How the values were obtained:
[1] = target: recombinant human kappa opioid receptor (κ) (Homo sapiens (Human), UniProt P41145); experiment: κ-opioid receptor radioligand dose displacement binding assay ([3H]-U69,593); conditions: mean ± SEM, read-out: Binding Affinity Opioid Receptor Ki (nM) [mean ± SEM] κ
Experimental: (§1) Membranes from HEK-293 cells, CHO or U-2 OS cells expressing the recombinant human kappa opioid receptor (κ) were prepared by lysing cells in ice cold hypotonic buffer (2.5 mM MgCl2, 50 mM HEPES, pH 7.4) (10 mL/10 cm dish) followed by homogenization with a tissue grinder/Teflon pestle. Membranes were collected by centrifugation at 30,000×g for 15 min at 4° C. and pellets were resuspended in hypotonic buffer to a final concentration of 1-3 mg/mL. Protein concentrations were determined using the BioRad protein assay reagent with bovine serum albumen as standard. Aliquots of κ receptor membranes were stored at −80° C.
Radioligand dose displacement assays used 0.4 nM [^3H]-U69,593 (GE Healthcare, Piscataway, N.J.; 40 Ci/mmole) with 15 μg membrane protein (recombinant κ opioid receptor expressed in HEK 293 cells; in-house prep) in a final volume of 200 μl binding buffer (5% DMSO, 50 mM Trizma base, pH 7.4). Non-specific binding was determined in the presence of 10 μM unlabeled naloxone or U69,593. All reactions were performed in 96-well polypropylene plates for 1 hour at a temperature of about 25° C. Binding reactions were terminated by rapid filtration onto 96-well Unifilter GF/C filter plates (Perkin Elmer, Shelton, Conn.) presoaked in 0.5% polyethylenimine (Sigma). Harvesting was performed using a 96-well tissue harvester (Perkin Elmer, Shelton, Conn.) followed by five filtration washes with 200 μl ice-cold binding buffer. Filter plates were subsequently dried at 50° C. for 1-2 hours. Fifty μl/well scintillation cocktail (Perkin Elmer, Shelton, Conn.) was added and plates were counted in a Packard Top-Count for 1 min/well.
(§2) The following tables provide results on the efficacy of binding and activity response of exemplified Compounds of the Invention at the μ- and κ-opioid receptors. In TABLE 3, binding affinity of certain Compounds of the Invention to the μ- and κ-opioid receptors was determined as described above. In TABLE 4, activity response of certain Compounds of the Invention to the μ- and κ-opioid receptors was determined as described above for functional assays using HEK-293 cells. In TABLE 5, activity response of certain Compounds of the Invention to the μ- and κ-opioid receptors was determined as described above using U-2 OS cells.

[2] = target: T1, μ-opioid receptors (Homo sapiens (Human), UniProt P35372); experiment: μ-opioid receptor [35S]GTPγS functional assay, HEK-293 cells; format: biochemical; conditions: μ GTP; for EC50: read-out: Activity Response μ EC50 (nM) [mean ± SEM]; for Emax: relative to DAMGO, read-out: Activity Response μ Emax (%)
Experimental: [^35S]GTPγS functional assays were conducted using freshly thawed μ-receptor membranes prepared from a cell line expressing recombinant μ opioid receptor in a HEK-293, CHO or U-2 OS cell background or purchased from a commercial source (Perkin Elmer, Shelton, Conn.; or DiscovRx, Fremont, Calif.). Assay reactions were prepared by sequentially adding the following reagents to binding buffer (100 mM NaCl, 10 mM MgCl2, 20 mM HEPES, pH 7.4) on ice (final concentrations indicated): membrane protein (0.026 mg/mL), saponin ([…]), GDP ([…]) and [^35S]GTPγS (0.20 nM; Perkin Elmer, Shelton, Conn.). The prepared membrane solution (190 μl/well) was transferred to 96-shallow well polypropylene plates containing 10 μl of 20× concentrated stock solutions of the agonist [D-Ala^2, N-methyl-Phe^4 Gly-ol^5]-enkephalin (DAMGO) prepared in dimethyl sulfoxide (DMSO). Plates were incubated for 30 min at about 25° C. with shaking. Reactions were terminated by rapid filtration onto 96-well Unifilter GF/B filter plates (Perkin Elmer, Shelton, Conn.) using a 96-well tissue harvester (Perkin Elmer, Shelton, Conn.) followed by three filtration washes with 200 μl of ice-cold wash buffer (10 mM NaH2PO4, 10 mM Na2HPO4, pH 7.4). Filter plates were subsequently dried at 50° C. for 2-3 hours. BetaScint scintillation cocktail (Perkin Elmer, Shelton, Conn.) was added (50 μl/well) and plates were counted using a Packard Top-Count for 1 min/well. Data were analyzed using the sigmoidal dose-response curve fitting functions in GraphPad PRISM v. 3.0, or an in-house function for non-linear, sigmoidal dose-response curve-fitting.
μ GTP EC50 is the concentration of a compound providing 50% of the maximal response for the compound at a μ-opioid receptor.
μ GTP Emax (%) is the maximal effect elicited by a compound relative to the effect elicited by DAMGO, a standard μ agonist. Generally, the μ GTP Emax (%) value measures the efficacy of a compound to treat or prevent pain or other Conditions.
as §2

[3] = target: T2, κ opioid receptor (Homo sapiens (Human), UniProt P41145); experiment: κ-opioid receptor [35S]GTPγS functional assay, HEK-293 cells; format: biochemical; conditions: κ GTP; for EC50: read-out: Activity Response κ EC50 (nM) [mean ± SEM]; for Emax: relative to U69,593, read-out: Activity Response κ Emax (%)
Experimental: as §1
Functional [^35S]GTPγS binding assays were conducted as follows. κ opioid receptor membrane solution was prepared by sequentially adding final concentrations of 0.026 μg/μl κ membrane protein (in-house), 10 μg/mL saponin, 3 μM GDP and 0.20 nM [^35S]GTPγS to binding buffer (100 mM NaCl, 10 mM MgCl2, 20 mM HEPES, pH 7.4) on ice. The prepared membrane solution (190 μl/well) was transferred to 96-shallow well polypropylene plates containing 10 μl of 20× concentrated stock solutions of agonist prepared in DMSO. Plates were incubated for 30 min at a temperature of about 25° C. with shaking. Reactions were terminated by rapid filtration onto 96-well Unifilter GF/B filter plates (Perkin Elmer, Shelton, Conn.) using a 96-well tissue harvester (Packard) and followed by three filtration washes with 200 μl ice-cold binding buffer (10 mM NaH2PO4, 10 mM Na2HPO4, pH 7.4). Filter plates were subsequently dried at 50° C. for 2-3 hours. Fifty μl/well scintillation cocktail (Perkin Elmer, Shelton, Conn.) was added and plates were counted in a Packard Top-Count for 1 min/well.
κ GTP EC50 is the concentration of a compound providing 50% of the maximal response for the compound at a κ receptor.
κ GTP Emax (%) is the maximal effect elicited by a compound relative to the effect elicited by U69,593.
as §2, with “In” for “The following tables provide results on the efficacy of binding and activity response of exemplified Compounds of the Invention at the μ- and κ-opioid receptors. In”

[4] = target: T2, κ opioid receptor; experiment: κ-opioid receptor [35S]GTPγS functional assay, U-2 OS cells; format: biochemical; conditions: κ GTP; for EC50: read-out: Activity Response κ EC50 (nM) [mean ± SEM]; for Emax: relative to U69,593, read-out: Activity Response κ Emax (%)
[5] = target: T1, μ-opioid receptors; experiment: μ-opioid receptor [35S]GTPγS functional assay, U-2 OS cells; format: biochemical; conditions: μ GTP; for EC50: read-out: Activity Response μ EC50 (nM) [mean ± SEM]; for Emax: relative to DAMGO, read-out: Activity Response μ Emax (%)

Row | Structure (SMILES) | Ki [1] [nM] | EC50 [2] [nM] | Emax [2] [%] | EC50 [3] [nM] | Emax [3] [%] | EC50 [4] [nM] | Emax [4] [%] | EC50 [5] [nM] | Emax [5] [%]
1 | COc1ccc2c(c1)[C@]13CCN(CC4CC4)[C@H](C2)[C@]1(O)CC(CC(=O)O)(CC(=O)O)C(=O)C3 [Compound 10, 2,2′-((4bR,8aS,9R)-11-(cyclopropylmethyl)-8a-hydroxy-3-methoxy-6-oxo-6,7,8,8a,9,10-hexahydro-5H-9,4b-(epiminoethano)phenanthrene-7,7-diyl)diacetic acid] | > 20000 | 14700 ± 1530 | 16 ± 2.65 | – | – | – | – | – | –
2 | O=C(O)CC1(CC(=O)O)C[C@@]2(O)[C@H]3Cc4ccc(O)cc4[C@@]2(CCN3CC2CC2)CC1=O [Compound 12, 2,2′-((4bR,8aS,9R)-11-(cyclopropylmethyl)-3,8a-dihydroxy-6-oxo-6,7,8,8a,9,10-hexahydro-5H-9,4b-(epiminoethano)phenanthrene-7,7-diyl)diacetic acid] | 3410 ± 538 | > 200000 | – | – | – | – | – | – | –
3 | COc1ccc2c(c1)[C@]13CCN(CC4CC4)[C@H](C2)[C@]1(O)C[C@H](CC(=O)N[C@@H](C)C(=O)O)C(=O)C3 [Compound 13, (S)-2-(2-((4bR,7R,8aS,9R)-11-(cyclopropylmethyl)-8a-hydroxy-3-methoxy-6-oxo-6,7,8,8a,9,10-hexahydro-5H-9,4b-(epiminoethano)phenanthren-7-yl)acetamido)propanoic acid] | > 20000 | 4600 ± 471 | 66 ± 2.65 | – | – | – | – | – | –
4 | COc1ccc2c(c1)[C@]13CCN(CC4CC4)[C@H](C2)[C@]1(O)C[C@H](CC(=O)N1CCC[C@H]1C(=O)O)C(=O)C3 [Compound 16, (S)-1-(2-((4bR,7R,8aS,9R)-11-(cyclopropylmethyl)-8a-hydroxy-3-methoxy-6-oxo-6,7,8,8a,9,10-hexahydro-5H-9,4b-(epiminoethano)phenanthren-7-yl)acetyl)pyrrolidine-2-carboxylic acid] | > 20000 | 6770 ± 1370 | 28.7 ± 1.86 | – | – | – | – | – | –
5 | COc1ccc2c(c1)[C@]13CCN(CC4CC4)[C@H](C2)[C@]1(O)C[C@H](CC(=O)N[C@@H](CC(C)C)C(=O)O)C(=O)C3 [Compound 18, (S)-2-(2-((4bR,7R,8aS,9R)-11-(cyclopropylmethyl)-8a-hydroxy-3-methoxy-6-oxo-6,7,8,8a,9,10-hexahydro-5H-9,4b-(epiminoethano)phenanthren-7-yl)acetamido)-4-methylpentanoic acid] | 15900 | 2750 ± 221 | 50 ± 1.53 | – | – | – | – | – | –
6 | O=C1C[C@]23CCN(CC4CC4)[C@H](Cc4ccc(O)cc42)[C@]3(O)C[C@@H]1CCO [Compound 54, (4bR,7S,8aS,9R)-11-(cyclopropylmethyl)-3,8a-dihydroxy-7-(2-hydroxyethyl)-8,8a,9,10-tetrahydro-5H-9,4b-(epiminoethano)phenanthren-6(7H)-one] | – | 14.2 ± 3.39 | 25 ± 2.04 | 5.02 ± 0.14 | 34.3 ± 0.67 | 4.82 ± 0.71 | 88.2 ± 2.53 | 1.81 ± 0.57 | 26.3 ± 2.33
7 | CC(C)CC[C@H]1C[C@@]2(O)[C@H]3Cc4ccc(O)cc4[C@@]2(CCN3CC2CC2)CC1=O [Compound 64, (4bR,7S,8aS,9R)-11-(cyclopropylmethyl)-3,8a-dihydroxy-7-isopentyl-8,8a,9,10-tetrahydro-5H-9,4b-(epiminoethano)phenanthren-6(7H)-one] | – | > 200000 | 1 | 4.3 ± 1.55 | 33 ± 1.73 | 4.71 ± 0.12 | 87.3 ± 2.6 | > 200000 | 7.5
8 | CN1CC[C@]23CC(=O)[C@@H](CC(=O)NCC4CC4)C[C@@]2(O)[C@H]1Cc1ccc(O)cc13 [Compound 84, N-(cyclopropylmethyl)-2-((4bR,7R,8aS,9R)-3,8a-dihydroxy-11-methyl-6-oxo-6,7,8,8a,9,10-hexahydro-5H-9,4b-(epiminoethano)phenanthren-7-yl)acetamide] | – | 1260 ± 301 | 57.7 ± 2.73 | – | – | – | – | – | –
